How the values were obtained:
Assay type in all cases: cell-based
[1] = tested on: Pseudomonas aeruginosa (ATCC 27853); experiment: Detachment of pre-formed biofilm from a well (Examples 1-7); details: 24-hour peptide incubation, different concentrations, crystal violet OD 595 nm
Protocol: A biofilm was created by incubating Pseudomonas aeruginosa (ATCC 27853) overnight in wells at 37° C., allowing the microorganism to attach to the well surface. Eqt2Z-cyc peptide [Custom Peptide Synthesis; Peptron, Korea] at different concentrations was subsequently added to the wells and allowed to incubate overnight. The P.a. control was Pseudomonas aeruginosa alone.
(§1) A biofilm was created by culturing Pseudomonas aeruginosa (ATCC 27853) for 2 hours in a well at 37° C. Eqt2Z-cyc peptide at different concentrations was subsequently added to the well and allowed to incubate overnight. The Abac10-cyc peptide served as a negative control. The P.a. control was Pseudomonas aeruginosa alone.
as §1, with “for 24 hours.” for “overnight.”, “alone. […] Staining was performed with crystal violet at OD 595 nm.” for “alone.”
A biofilm was created by culturing Pseudomonas aeruginosa (ATCC 27853) for 2 hours in a well at 37° C. grZ14s-nvCyc peptide [Custom Peptide Synthesis; Peptron, Korea] at different concentrations was subsequently added to the well and allowed to incubate for 24 hours. The Abac10-cyc peptide served as a negative control. The P.a. control was Pseudomonas aeruginosa alone. […] Staining was performed with crystal violet at OD 595 nm.
(§2) A biofilm was created by culturing Pseudomonas aeruginosa (ATCC 27853) for 24 hours in a well at 37° C. Eqt2Z-cyc peptide at different concentrations was subsequently added to the well and allowed to incubate for 24 hours. The Abac10-cyc peptide served as a negative control. The P.a. control was Pseudomonas aeruginosa alone. […] Staining was performed with crystal violet at OD 595 nm.
as §2, with “grZ14s-nvCyc” for “Eqt2Z-cyc”
A biofilm was created by culturing Pseudomonas aeruginosa (ATCC 27853) for 24 hours in a well at 37° C. PhyscoZ-Cyc peptide [Custom Peptide Synthesis; Peptron, Korea] at different concentrations was subsequently added to the well and allowed to incubate for 24 hours. The P.a. control was Pseudomonas aeruginosa alone. […] Staining was performed with crystal violet at OD 595 nm.

[2] = tested on: Pseudomonas aeruginosa; experiment: Enhancement of antibiotic activity on 24-h biofilm, live bacteria by plating
Protocol: (§3) The ability of grZ14s-nvCyc to enhance the activity of Imipenem or Ampicillin was performed by first incubating the wells in a 96-well plate with Pseudomonas aeruginosa for 24 hours at 37° C. and 50 rpm shaking. The plate was washed 2 times with phosphate buffer solution. The wells were then filled with either the antibiotic alone or the antibiotic with grZ14s-nvCyc (100 ng/ml). The wells were then incubated for 48 hours (24 hours for Ampicillin) at 37° C. and 50 rpm shaking. 0.3% triton X-100 and 0.45% EDTA were then added to the wells, bringing the wells to a final concentration of 0.075% triton X-100 and 0.1125% EDTA. The plates were then sonicated in a bath-sonicator for 12 minutes. The wells were then serially diluted in PBS. The solutions were then seeded on a blood plate agar and incubated at 37° C. for 24 hours.

[3] = tested on: Staphylococcus aureus; experiment: Enhancement of Vancomycin activity on 24-h biofilm, live bacteria by plating; details: peptide 100 ng/ml with Vancomycin vs Vancomycin alone
Protocol: as §3, with “Vancomycin” for “Imipenem or Ampicillin”, “Staphylococcus aureus” for “Pseudomonas aeruginosa”, “24” for “48”, “hours” for “hours (24 hours for Ampicillin)”

[4] = tested on: Candida albicans; experiment: Enhancement of antifungal activity, BacTiter-Glo viability; details: 24 hours
Protocol: (§4) The ability of grZ14s-nvCyc to enhance the activity of Amphotericin was performed by first incubating the wells in a 96-well plate with Candida albicans for 24 hours at 37° C. and 50 rpm shaking. The plate was washed 2 times with phosphate buffer solution. The wells were then filled with either the antifungal alone or the antifungal with grZ14s-nvCyc (100 ng/ml). The wells were then incubated for 24 hours at 37° C. and 50 rpm shaking. The plates were again washed 2 times with PBS. BacTiter-Glo Microbial Cell Viability Assay (Promega, USA) was used following the manufacturer protocol and luminescence read.
as §4, with “Fluconazole” for “Amphotericin”

[5] = tested on: Pseudomonas aeruginosa; experiment: Enhancement of Kanamycin activity, BacTiter-Glo viability; details: peptide 100 ng/ml with Kanamycin vs Kanamycin alone, 24 hours
Protocol: as §4, with “Kanamycin” for “Amphotericin”, “Pseudomonas aeruginosa” for “Candida albicans”, “Kanamycin” for “the antifungal”

In the case of CSVHSFDYDWYNVC [grZ14s-nvCyc], the microorganism detachment ([1]; 2-hour biofilm) is reported as “far greater microorganism detachment than in the P.a. control or negative control”, the microorganism detachment ([1]; 24-hour biofilm) is reported as “far greater microorganism detachment than in the P.a. control or negative control” and the “number of live bacteria” value ([2]; peptide 100 ng/ml with Ampicillin vs Ampicillin alone, 24 hours) is reported as “much lower”. For the same sequence, the “number of live bacteria” value ([2]; peptide 100 ng/ml with Imipenem vs Imipenem alone, 48 hours) was “much lower”, the “number of live bacteria” value [3] was “much lower” and the “number of live fungus” value ([4]; peptide 100 ng/ml with Amphotericin vs Amphotericin alone) was “much lower”. The “number of live fungus” value ([4]; peptide 100 ng/ml with Fluconazole vs Fluconazole alone) was “much lower” and the “number of live bacteria” value [5] was “much lower”.
